Reference: patent US7884103B2 (priority 2003, dated 2011)

Legend:
[1] = tested on: Plasmopara viticola on vines; assay: Action against Plasmopara viticola on vines, residual-curative action (D-1b); type: in vivo; conditions: vine seedlings sprayed 24 hours after infection, evaluated 6 days after infection, untreated plants attack 60-100%
Procedure: (§1) Action Against Plasmopara Viticola on Vines
b) Residual-Curative Action
Vine seedlings are infected at the 4- to 5-leaf stage with a sporangia suspension of the fungus. […] After the spray coating has dried, the treated plants are placed in the humidity chamber again. Fungus infestation is evaluated 6 days after infection.

[2] = tested on: Plasmopara viticola on vines; assay: Action against Plasmopara viticola on vines, residual-protective action (D-1a); type: in vivo; conditions: vine seedlings sprayed 24 hours before infection, evaluated after 6 days, untreated plants attack 60-100%
Procedure: as §1
A) Residual-Protective Action
Fungus infestation is evaluated after incubation for 6 days at 95-100% relative humidity and +20° C.

[3] = tested on: Septoria nodorum (Glume blotch); assay: Septoria nodorum wheat leaf segment test, preventive fungicidal activity; type: cell-based; conditions: tested dose range 200 to 22 ppm, wheat leaf segments, assessed 4 dpi
Procedure: Septoria nodorum (Glume blotch): Wheat leaf segments are placed on agar in a multiwell plate (24-well format) and sprayed with test solutions. After drying, the leaf disks are inoculated with a spore suspension of the fungus. After appropriate incubation the activity of a compound is assessed 4 dpi (days after inoculation) as preventive fungicidal activity. Within the tested dose range of 200 to 22 ppm the Compound No. 82 inhibited at least 80% of fungal growth.

SMILES | inhibition at 200 ppm [1] [%] | inhibition at 200 ppm [2] [%] | inhibition of fungal growth [3]
C#CCNC(=O)C(C)(COc1ccc(OCC)cc1)NS(=O)(=O)Cc1ccccc1 (stereo not shown) [compound 087, 3-(4-Ethoxy-phenoxy)-2-methyl-2-phenylmethanesulfonylamino-N-prop-2-ynyl-propionamide] | 80 to 100 | 80 to 100 | –
CC(COc1ccc(-n2cncn2)cc1)(NS(=O)(=O)Cc1ccccc1)C(=O)O (stereo not shown) [compound 100, 2-Methyl-2-phenylmethanesulfonylamino-3-(4-[1,2,4]triazol-1-yl-phenoxy)-propionic Acid] | 80 to 100 | 80 to 100 | –
CCOc1ccc(OCC(C)(NS(=O)(=O)Cc2ccccc2)C(=O)OC)cc1 (stereo not shown) [compound 082, 3-(4-Ethoxy-phenoxy)-2-methyl-2-phenylmethanesulfonylamino-propionic Acid Methyl Ester] | – | – | at least 80%
CCOc1ccc(OCC(C)(NS(=O)(=O)Cc2ccccc2)C(=O)N(C)OC)cc1 (stereo not shown) [compound 083, 3-(4-Ethoxy-phenoxy)-N-methoxy-2,N-dimethyl-2-phenylmethanesulfonylamino-propionamide] | 80 to 100 | 80 to 100 | –
